# Data as given in US10722512B2, “Combinations of histone deacetylase inhibitors and either HER2 inhibitors or PI3K inhibitors” (Acetylon Pharmaceuticals, Inc., priority 2013, dated 2020).
# Tests used:
# Type in all cases: cell-based
# [1] = tested on: T-47D*; assay: Breast cancer cell viability, 48 hours, MTA assay; conditions: T-47D*, 48 hours; for IC50: Homo sapiens, T47D, single agent, read-out: IC50; for Synergy: combination with cmpd A, Chou-Talalay CI
# Description: (§1) Cell viabilities were used to calculate “Fraction Affected” (Fa) and “Combination Index” (CI) values using the Chou-Talalay method. Any combination with a CI value<0.70 at a Fa value between 0.25 and 0.75 was defined as positive synergy.
# [2] = tested on: BT474; assay: Breast cancer cell viability, 48 hours, MTA assay; conditions: 48 hours; for Synergy: BT474, combination with cmpd A, Chou-Talalay CI; for IC50: Homo sapiens, BT-474, BT474, single agent, read-out: IC50
# Description: as §1
# [3] = tested on: Bcap-37; assay: Breast cancer cell viability, 48 hours, MTA assay; conditions: 48 hours; for Synergy: Bcap-37, combination with cmpd A, Chou-Talalay CI; for IC50: Homo sapiens, Bcap37, Bcap-37, single agent, read-out: IC50
# Description: as §1
# [4] = tested on: HCC1937; assay: Breast cancer cell viability, 48 hours, MTA assay; conditions: 48 hours; for Synergy: HCC1937, combination with cmpd A, Chou-Talalay CI; for IC50: Homo sapiens, HCC1937, single agent, read-out: IC50
# Description: as §1
# [5] = tested on: MX-1; assay: Breast cancer cell viability, 48 hours, MTA assay; conditions: 48 hours; for IC50: Homo sapiens, MX1, MX-1, single agent, read-out: IC50; for Synergy: MX-1, combination with cmpd A, Chou-Talalay CI
# Description: as §1
# [6] = tested on: MDA-MB-231; assay: Breast cancer cell viability, 48 hours, MTA assay; conditions: 48 hours; for IC50: Homo sapiens, MDA-MB-231, single agent, read-out: IC50; for Synergy: MDA-MB-231, combination with cmpd A, Chou-Talalay CI
# Description: as §1
# [7] = tested on: MCF-7; assay: Breast cancer cell viability, 48 hours, MTA assay; conditions: 48 hours; for IC50: Homo sapiens, MCF7, MCF-7, single agent, read-out: IC50; for Synergy: MCF-7, combination with cmpd A, Chou-Talalay CI
# Description: as §1
# [8] = tested on: MDA-MB-453; assay: Breast cancer cell viability, 48 hours, MTA assay; conditions: 48 hours; for IC50: Homo sapiens, MDA-MB-453, single agent, read-out: IC50; for Synergy: MDA-MB-453, combination with cmpd A, Chou-Talalay CI
# Description: as §1
# [9] = tested on: MDA-MB-468; assay: Breast cancer cell viability, 48 hours, MTA assay; conditions: 48 hours; for IC50: Homo sapiens, MDA-MB-468, single agent, read-out: IC50; for Synergy: MDA-MB-468, combination with cmpd A, Chou-Talalay CI
# Description: as §1
# [10] = tested on: BT-549; assay: Breast cancer cell viability, 48 hours, MTA assay; conditions: 48 hours; for Synergy: BT-549, combination with cmpd A, Chou-Talalay CI; for IC50: Homo sapiens, BT-549, single agent, read-out: IC50
# Description: as §1
# [11] = tested on: MDA-MB-361; assay: Breast cancer cell viability, 48 hours, MTA assay; conditions: 48 hours; for IC50: Homo sapiens, MDA-MB-361, single agent, read-out: IC50
# Description: as §1
# [12] = tested on: HCC38; assay: Breast cancer cell viability, 48 hours, MTA assay; conditions: 48 hours; for Synergy: HCC38, combination with cmpd A, Chou-Talalay CI; for IC50: Homo sapiens, HCC38, single agent, read-out: IC50
# Description: as §1
# [13] = tested on: MDA-MB-436; assay: Breast cancer cell viability, 48 hours, MTA assay; conditions: 48 hours; for IC50: Homo sapiens, MDA-MB-436, single agent, read-out: IC50
# Description: as §1
# [14] = tested on: Hs578T; assay: Breast cancer cell viability, 48 hours, MTA assay; conditions: Hs578T, 48 hours; for IC50: Homo sapiens, Hs-578T, single agent, read-out: IC50; for Synergy: combination with cmpd A, Chou-Talalay CI
# Description: as §1
# [15] = tested on: ZR-75-1; assay: Breast cancer cell viability, 48 hours, MTA assay; conditions: 48 hours; for IC50: Homo sapiens, ZR-75-1, single agent, read-out: IC50; for Synergy: ZR-75-1, combination with cmpd A, Chou-Talalay CI
# Description: as §1
# [16] = tested on: SK-BR-3; assay: Breast cancer cell viability, 48 hours, MTA assay; conditions: 48 hours; for IC50: Homo sapiens, SK-BR-3, single agent, read-out: IC50; for Synergy: SK-BR-3, combination with cmpd A, Chou-Talalay CI
# Description: as §1
# [17] = tested on: Her2+ breast cancer cells
IC50 [1],IC50 [2],IC50 [3],IC50 [4],IC50 [5],IC50 [6],IC50 [7],IC50 [8],IC50 [9],IC50 [10],IC50 [11],IC50 [12],Structure (SMILES),Synergy [1],Synergy [2],Synergy [3],Synergy [4],Synergy [5],Synergy [9],Synergy [10],Synergy [12],further results
150 nM,190 nM,170 nM,240 nM,240 nM,730 nM,820 nM,220 nM,100 nM,30 nM,170 nM,180 nM,COc1cccc2c1C(=O)c1c(O)c3c(c(O)c1C2=O)C[C@@](O)(C(=O)CO)C[C@@H]3O[C@H]1C[C@H](N)[C@H](O)[C@H](C)O1 [Doxorubicin],S (Any combination with a CI value<0.70 at a Fa value between 0.25 and 0.75 was defined as positive synergy),S (Any combination with a CI value<0.70 at a Fa value between 0.25 and 0.75 was defined as positive synergy),S (Any combination with a CI value<0.70 at a Fa value between 0.25 and 0.75 was defined as positive synergy),S (Any combination with a CI value<0.70 at a Fa value between 0.25 and 0.75 was defined as positive synergy),S (Any combination with a CI value<0.70 at a Fa value between 0.25 and 0.75 was defined as positive synergy),S (Any combination with a CI value<0.70 at a Fa value between 0.25 and 0.75 was defined as positive synergy),S (Any combination with a CI value<0.70 at a Fa value between 0.25 and 0.75 was defined as positive synergy),S (Any combination with a CI value<0.70 at a Fa value between 0.25 and 0.75 was defined as positive synergy),Synergy [6]: S (Any combination with a CI value<0.70 at a Fa value between 0.25 and 0.75 was defined as positive synergy); IC50 [13]: 170 nM; IC50 [14]: 1560 nM; Synergy [14]: S (Any combination with a CI value<0.70 at a Fa value between 0.25 and 0.75 was defined as positive synergy); IC50 [15]: 130 nM; Synergy [15]: S (Any combination with a CI value<0.70 at a Fa value between 0.25 and 0.75 was defined as positive synergy); IC50 [16]: 120 nM; Synergy [16]: S (Any combination with a CI value<0.70 at a Fa value between 0.25 and 0.75 was defined as positive synergy)
620 nM,90 nM,2480 nM,2450 nM,560 nM,1690 nM,430 nM,290 nM,2930 nM,1660 nM,3270 nM,7440 nM,CS(=O)(=O)N1CCN(Cc2cc3nc(-c4cccc5[nH]ncc45)nc(N4CCOCC4)c3s2)CC1 [GDC-0941],S (Any combination with a CI value<0.70 at a Fa value between 0.25 and 0.75 was defined as positive synergy),S (Any combination with a CI value<0.70 at a Fa value between 0.25 and 0.75 was defined as positive synergy),S (Any combination with a CI value<0.70 at a Fa value between 0.25 and 0.75 was defined as positive synergy),S (Any combination with a CI value<0.70 at a Fa value between 0.25 and 0.75 was defined as positive synergy),S (Any combination with a CI value<0.70 at a Fa value between 0.25 and 0.75 was defined as positive synergy),S (Any combination with a CI value<0.70 at a Fa value between 0.25 and 0.75 was defined as positive synergy),S (Any combination with a CI value<0.70 at a Fa value between 0.25 and 0.75 was defined as positive synergy),S (Any combination with a CI value<0.70 at a Fa value between 0.25 and 0.75 was defined as positive synergy),"Synergy [6]: S (Any combination with a CI value<0.70 at a Fa value between 0.25 and 0.75 was defined as positive synergy); Synergy [7]: S (Any combination with a CI value<0.70 at a Fa value between 0.25 and 0.75 was defined as positive synergy); Synergy [8]: S (Any combination with a CI value<0.70 at a Fa value between 0.25 and 0.75 was defined as positive synergy); Synergy ([11]; MDA-MB-361, combination with cmpd A, Chou-Talalay CI): S (Any combination with a CI value<0.70 at a Fa value between 0.25 and 0.75 was defined as positive synergy); IC50 [13]: 3270 nM; Synergy ([13]; MDA-MB-436, combination with cmpd A, Chou-Talalay CI): S (Any combination with a CI value<0.70 at a Fa value between 0.25 and 0.75 was defined as positive synergy); IC50 [14]: 1110 nM; Synergy [14]: S (Any combination with a CI value<0.70 at a Fa value between 0.25 and 0.75 was defined as positive synergy); IC50 [15]: 210 nM; Synergy [15]: S (Any combination with a CI value<0.70 at a Fa value between 0.25 and 0.75 was defined as positive synergy); IC50 [16]: 220 nM; Synergy [16]: S (Any combination with a CI value<0.70 at a Fa value between 0.25 and 0.75 was defined as positive synergy); cytotoxicity of the combination with Compound A [17]: synergistic cytotoxicity"

Structure (SMILES),IC50 [1],IC50 [2],IC50 [3],IC50 [4],IC50 [5],IC50 [6],IC50 [7],IC50 [8],IC50 [9],IC50 [10],IC50 [11],IC50 [12],Synergy [1],Synergy [2],Synergy [3],Synergy [4],Synergy [5],Synergy [9],Synergy [10],Synergy [12],further results
CS(=O)(=O)CCNCc1ccc(-c2ccc3ncnc(Nc4ccc(OCc5cccc(F)c5)c(Cl)c4)c3c2)o1 [Lapatinib],23300 nM,40 nM,10900 nM,5560 nM,1010 nM,7170 nM,5780 nM,130 nM,5600 nM,6530 nM,9310 nM,5050 nM,S (Any combination with a CI value<0.70 at a Fa value between 0.25 and 0.75 was defined as positive synergy),S (Any combination with a CI value<0.70 at a Fa value between 0.25 and 0.75 was defined as positive synergy),S (Any combination with a CI value<0.70 at a Fa value between 0.25 and 0.75 was defined as positive synergy),S (Any combination with a CI value<0.70 at a Fa value between 0.25 and 0.75 was defined as positive synergy),S (Any combination with a CI value<0.70 at a Fa value between 0.25 and 0.75 was defined as positive synergy),S (Any combination with a CI value<0.70 at a Fa value between 0.25 and 0.75 was defined as positive synergy),S (Any combination with a CI value<0.70 at a Fa value between 0.25 and 0.75 was defined as positive synergy),S (Any combination with a CI value<0.70 at a Fa value between 0.25 and 0.75 was defined as positive synergy),Synergy [7]: S (Any combination with a CI value<0.70 at a Fa value between 0.25 and 0.75 was defined as positive synergy); Synergy [8]: S (Any combination with a CI value<0.70 at a Fa value between 0.25 and 0.75 was defined as positive synergy); IC50 [13]: 9310 nM; IC50 [14]: 5770 nM; Synergy [14]: S (Any combination with a CI value<0.70 at a Fa value between 0.25 and 0.75 was defined as positive synergy); IC50 [15]: 2690 nM; Synergy [15]: S (Any combination with a CI value<0.70 at a Fa value between 0.25 and 0.75 was defined as positive synergy); IC50 [16]: 60 nM; Synergy [16]: S (Any combination with a CI value<0.70 at a Fa value between 0.25 and 0.75 was defined as positive synergy); cytotoxicity of the combination with Compound A [17]: synergistic cytotoxicity
